Test results as given in patent US20070244006A1, “Fungicidal Mixtures” (priority 2004, published 2007).

What was measured:
[1] = tested on: Plasmopara viticola; test: Activity against peronospora of grapevines caused by Plasmopara viticola, 9 day protective application; format: in vivo; details: potted vines, inoculated 9 days after treatment
Description: (§1) The active compounds, separately or jointly, were prepared as a stock solution comprising 0.25% by weight of active compound in acetone or DMSO. 1% by weight of the emulsifier Uniperol® EL (wetting agent having emulsifying and dispersant action based on ethoxylated alkylphenols) was added to this solution, and the mixture was diluted with water to the desired concentration.
Leaves of potted vines were sprayed to runoff point with an aqueous suspension having the concentration of active compound stated below. To be able to assess the persistency of the substances, the plants were, after the spray coating had dried on, placed in a greenhouse for 9 days. Only then were the leaves inoculated with an aqueous zoospore suspension of Plasmopara viticola. The grapevines were then initially placed in a water-vapor-saturated chamber at 24° C. for 48 hours and then in a greenhouse at temperatures between 20 and 30° C. for 5 days. After this time, the plants were again placed in a humid chamber for 16 hours, to promote sporangiophore eruption. The extent of the development of the infection on the undersides of the leaves was then determined visually.
(§2) Evaluation was carried out analogously to example 1.

[2] = tested on: Pyrenophora teres; test: Activity against net blotch of barley caused by Pyrenophora teres, 1 day protective application; format: in vivo, Pyrenophora [syn. Drechslera] teres; details: barley seedlings cultivar Hanna, inoculated 24 hours after treatment
Description: as §1
Leaves of potted barley seedlings of the cultivar “Hanna” were sprayed to runoff point with an aqueous suspension having the concentration of active compound stated below. 24 hours after the spray coating had dried on, the test plants were inoculated with an aqueous spore suspension of Pyrenophora [syn. Drechslera] teres, the net blotch pathogen. The test plants were then placed in a greenhouse at temperatures between 20 and 24° C. and at 95 to 100% relative atmospheric humidity. After 6 days, the extent of the development of the disease was determined visually in % infection of the entire leaf area.
as §2

[3] = tested on: Venturia inaequalis; test: Activity against scab on apple leaves caused by Venturia inaequalis, protective application; format: in vivo; details: inoculated 12 days after treatment
Description: as §1
Leaves of apples were sprayed to runoff point with an aqueous suspension having the concentration of active compound stated below. After 12 days, the treated plants were inoculated with an aqueous spore suspension of Venturia inaequalis. The apples were then initially placed in a water-vapor-saturated chamber at 24° C. for 48 hours and then in a greenhouse at temperatures between 20 and 24° C. for 20 days. The extent of the development of the infection on the upper sides of the leaves was then determined visually.
The visually determined percentages of infected leaf areas were converted into efficacies in % of the untreated control:
The efficacy (E) is calculated as follows using Abbot's formula: E=(1−α/β)[…] α corresponds to the fungal infection of the treated plants in % and β corresponds to the fungal infection of the untreated (control) plants in % An efficacy of 0 means that the infection level of the treated plants corresponds to that of the untreated control plants; an efficacy of 100 means that the treated plants were not infected.
The expected efficacies of mixtures of active compounds were determined using Colby's formula (Colby, S. R. “Calculating synergistic and antagonistic responses of herbicide Combinations”, Weeds, 15, 20-22, 1967) and compared with the observed efficacies.
Colby's formula: E=x+y−x·y/100
E expected efficacy, expressed in % of the untreated control, when using the mixture of the active compounds A and B at the concentrations a and b x efficacy, expressed in % of the untreated control, when using the active compound A at the concentration a y efficacy, expressed in % of the untreated control, when using the active compound B at the concentration b

| SMILES | Efficacy in % of the untreated control ([1]; 50 ppm in the spray liquor) [%] | Efficacy in % of the untreated control ([2]; 3.1 ppm in the spray liquor) [%] | Efficacy in % of the untreated control ([3]; 50 ppm in the spray liquor) [%] | also measured |
| --- | --- | --- | --- | --- |
| CC1CCN(c2c(-c3c(F)cc(F)cc3F)c(Cl)nc3ncnn23)CC1 [I-1, 5-chloro-7-(4-methylpiperidin-1-yl)-6-(2,4,6-trifluorophenyl)-[1,2,4]triazolo[1,5-a]pyrimidine] | 25 | 66 | 48 | Efficacy in % of the untreated control ([1]; 25 ppm in the spray liquor): 13%; Efficacy in % of the untreated control ([3]; 25 ppm in the spray liquor): 18% |
| CCC(=O)C1=C([O-])CC(C(=O)[O-])CC1=O.[Ca+2] (stereo not drawn) [prohexadione-Ca (IIa.1), prohexadione-Ca] | 0 |  | 4 | Efficacy in % of the untreated control ([1]; 100 ppm in the spray liquor): 0%; Efficacy in % of the untreated control ([3]; 100 ppm in the spray liquor): 29% |
| CC(=NNC(=O)Nc1cc(F)cc(F)c1)c1ncccc1C(=O)O [diflufenzopyr (III.1), 2-{1-[4-(3,5-difluorophenyl)semicarbazono]ethyl}nicotinic acid] |  |  |  | Efficacy in % of the untreated control ([2]; 0.031 ppm in the spray liquor): 0% |
| C[N+](C)(C)CCCl [chlormequat chloride (IIc.1), chlormequat chloride] |  | 0 |  | Efficacy in % of the untreated control ([2]; 6.3 ppm in the spray liquor): 0% |
